± gives the expanded uncertainty stated by the source.
Legend:
[1] = Crystal; DTA
[2] = Molar enthalpy of transition or fusion; settings: Crystal; DSC

CC[C@H](C)[C@H]1O[C@]2(C=C[C@@H]1C)C[C@@H]1C[C@@H](C/C=C(\C)[C@@H](O[C@H]3C[C@H](OC)[C@@H](O[C@H]4C[C@H](OC)[C@@H](O)[C@H](C)O4)[C@H](C)O3)[C@@H](C)/C=C/C=C3\CO[C@@H]4[C@H](O)C(C)=C[C@@H](C(=O)O1)[C@]34O)O2 [Avermectin B1a]
Normal melting temperature [1]: 163.29 ± 0.61 °C | Molar enthalpy of transition or fusion [2]: 28.9 ± 0.64 kJ/mol
